Experimental data reported in patent publication US11458083B2, “Cosmetic and/or dermatological composition containing a merocyanine derivative comprising specific polar groups consisting of hydroxyl- and ether-functionalities” (L'OREAL, priority 2011, dated 2022).

Columns and labels:
Type in all cases: physicochemical
[1] = UV shielding properties: UV spectra in ethanol; set-up: Absorption maximum λmax: unit not given here; conditions: UV spectrum in ethanol
Source text: The UV shielding properties of the merocyanine derivatives are investigated by measuring their UV spectra in ethanol. In the following table the investigated absorption maxima (Amax) together with the corresponding A^1%1cm values are listed.

[2] = Storage (chemical) stability in water/ethanol solution, UPLC; conditions: 0.5% in water/ethanol 1/1, 45° C.
Procedure: The chemical stability of the compounds can be assessed in a water/ethanol solution 1/1 with compounds solubilized at 0.5%.
(§1) Once the solution prepared, it is placed in an oven at 45° C. for 2 months for stability and 1 h at 60° C. for acidic stress. Then the solution is aliquoted (0.005% w/v in H2O/ACN 50/50) for liquid chromatography analysis to check disappearance or not.
(§2) UPLC Acquity (Waters) with diod array detector eλ (Waters).
(§3) Column: Acquity HSS T3 (Waters), length: 50 mm, Inner diameter: 2.1 mm, particles diameter 1.8 μm. Mobile phase A=ammonium acetate 20 mM, B=Acetonitrile.
(§4) • Flow rate: 0.5 mL/min • T: 20° C. • Detection at UV 383 nm

[3] = Acid media stability (HCl 0.1M), UPLC; conditions: HCl 0.1M in water/ethanol/isopropanol 50/40/10 (v/v/v), 1 h at 60° C.
Procedure: These solutions could be acidified to check also stability toward acid media for example HCl 0.1M in a water/ethanol/isopropanol 50/40/10 (v/v/v).
as §1, §2, §3, §4

[4] = Photostability of the UV filters in a formula film exposed to a solar simulator (HPLC); conditions: film about 20 μm, UVA dose 42 J/cm^2
Source text: The percentage of residual amount of each UV filter (merocyanine compound and dibenzoylmethane compound) caused by the exposure to a solar simulator of a formula spread in a film having a thickness of about 20 μm was measure. The evaluation was done by HPLC analysis of each UV filter in a solution after extraction of the film, by comparing exposed and non-exposed samples. Solar simulator: Apparatus Oriel […] equipped with a 4 pouces outlet, a 81017 filter and a dichroic mirror. The samples were exposed in horizontal position. The UV exposure was characterized by: • a UVB flux of 0.35-0.45 mW/cm^2 • a UVA flux 16-18 mW/cm^2. Each residual amount of each UV filter was measured by HPLC chromatography with a sensor having diodes bars. About 20 mg of the composition are spread on the surface of a rough melt silica disc. 3 films of composition were exposed to the solar simulator and 3 other films were used as control. The samples were exposed 3 per 3 to the light of the simulator during a sufficient time delivering an UVA dose of 42 J/cm^2. At the end of the exposure, the disc was introduced in a bowl of 600 ml with 10 ml of appropriate solvent (ie generally ethanol). The disc and the bowl were then placed during 5 minutes in an ultrasonic tank.

Row | SMILES | A^1%1 cm at absorption maximum [1] | Absorption maximum λmax [1] | Storage stability 2 months 45° C. [2] | Acid media stability 1 h 60° C. (loss) [3] | % of residual merocyanine compound 4 after UV exposure ([4]; in composition Example 9 (with 2% avobenzone)) | % of residual Avobenzone after UV exposure ([4]; in composition Example 9 (with 1% merocyanine compound 4))
1 | CCOC(=O)/C(C#N)=C/C=C/N(CCOC)CCOC [Compound 1] | 2283 | 380 | – | – | – | –
2 | COCCOC(=O)/C(C#N)=C/C=C/N(CCOC)CCOC [Compound 2] | 2046 | 380 | – | – | – | –
3 | CC(C)COC(=O)/C(C#N)=C1\C=C(NCC(C)O)CCC1 (centres unmarked) [Compound 17] | 2083 | 385 | – | – | – | –
4 | CCOCCOC(=O)/C(C#N)=C1\C=C(NCCCOC)CCC1 [Compound 25, 2-ethoxyethyl (2Z)-cyano{3-[(3-methoxypropyl)amino]cyclohex-2-en-1-ylidene}ethanoate] | 1947 | 385 | No loss | Loss 4% | – | –
5 | CCOCCOC(=O)/C(C#N)=C/C=C/N1CCCCC1 [Compound 4] | 2568 | 381 | – | – | 85% | –
6 | COCCCNC(=O)/C(C#N)=C1\C=C(NCCCOC)CCC1 [Compound 15] | 1644 | 385 | No loss | Loss 100% | – | –
7 | CCCCOC(=O)/C(C#N)=C/C=C/N(CCO)CCCC [Compound 12] | 2235 | 381 | – | – | – | –
8 | CCCN(/C=C/C=C(\C#N)C(=O)OCC(O)CO)CCC (centres unmarked) [Compound 23] | 2230 | 381 | – | – | – | –
9 | COCCOCCOC(=O)/C(C#N)=C/C=C/N1CCCCC1 [Compound 5] | 2252 | 381 | – | – | – | –
10 | CCOC(=O)/C(C#N)=C1\C=C(NCCCOC)CCC1 [Compound 14] | 2207 | 385 | – | – | – | –
11 | CCCCC(CC)CNC1=C/C(=C(/C#N)C(=O)NCCO)CCC1 (centres unmarked) [Compound 16] | 1618 | 386 | – | – | – | –
12 | COc1ccc(C(=O)CC(=O)c2ccc(C(C)(C)C)cc2)cc1 [Avobenzone, 4-(tert-butyl)-4′-methoxydibenzoylmethane, reference compound] | – | – | – | – | – | 91%
13 | N#C/C(=C\C=C\N1CCCCC1)C(=O)OCC(O)CO (centres unmarked) [Compound 7] | 2467 | 381 | – | – | – | –
14 | N#C/C(=C\C=C\N1CCOCC1)C(=O)OCC(O)CO (centres unmarked) [Compound 9] | 2414 | 380 | – | – | – | –
15 | CCOCCOC(=O)/C(C#N)=C/C=C/N(CCOC)CCOC [Compound 3] | 1965 | 380 | – | – | – | –
16 | CCCCCCCCOC(=O)/C(C#N)=C/C=C/N(CC)CCO [Compound 18] | 2036 | 385 | – | – | – | –
17 | N#C/C(=C\C=C\N1CCCCC1)C(=O)NCCO [Compound 6] | 2530 | 380 | – | – | – | –
